From US20240059719A1, “GOLD COMPLEXES AS ANTICANCER AGENT” (King Saud University, priority 2023, published 2024)

How the values were obtained:
Type in all cases: cell-based
MCF-7 cells [1] = experiment: Intracellular ATP analysis (colorimetric ATP assay kit); conditions: 0-100 μM, 12 h
Method: The intracellular ATP levels were determined after the exposure of PBTDG and erlotinib (0-100 μM) to MCF-7 cells for 12 h using a colorimetric ATP assay kit (Sigma-Aldrich, USA) according to the manufacturer instructions. The unknown concentrations of the test samples were calculated using the linear standard curve generated from the concentration of 0-12 nmole ATP. […]

MCF-7 cells [2] = experiment: Reactive oxygen species analysis (Muse Oxidative Stress Kit, flow cytometry); conditions: 24 h
Method: For the analysis of reactive oxygen species (ROS), MCF-7 cells were seeded ([…]) in a 6-well plate and allowed to grow for 24 h at 37° C. under the environment of 5% CO2 and 95% humidity. […] DMS( )served as a negative control. The final DMSO concentration in each well was less than 0.1%. After harvesting the cells, they were stained with Muse® Oxidative Stress Kit (Luminex, IL, USA) following the manufacturer's instructions. The percentage of cells with oxidative stress was measured by flow cytometry analysis.

[3] = tested on: MCF-7 breast cancer cells; experiment: MTT cell viability analysis (cytotoxicity); conditions: Homo sapiens, MCF7, MCF-7 cells, 24 hours treatment
Method: MTT (3-(4,5-dimethylthiazol-2-yl)-2,5-diphenyltetrazolium bromide) assay was used for cell viability analysis. MCF-7 breast cancer cells were seeded in a cell culture plate (96-well) at 10^4 cells per well in 200 μl of Dulbecco's modified Eagle medium (DMEM). […] MTT solution (20 μl of 5 mg/mL) was added to each well of the micro plate, which were then incubated in a CO2 incubator at 37° C. for 3 hours. After incubation, the culture medium was removed and 100 μL of isopropanol were added to each well of the micro plate and the absorbance was recorded at 570 nm against reagent blank. The cell viability was calculated using the formula:
Cell viability %=100*(Absorbance sample)/(Absorbance blank)

MCF-7 cells [4] = experiment: Mitochondrial membrane potential analysis (Muse MitoPotential flow cytometry); conditions: 24 hours
Method: Muse MitoPotential Flow Cytometry Kit (Luminex, IL, USA) was used for measuring mitochondrial membrane potential (MMP). MCF-7 cells were seeded (15000 cells per well) in a 6-wells culture plate. […] A negative control (DMSO) was run in parallel. Finally, the cells were stained with Mito Potential reagents provided in the kit, following the manufacturer's instructions, and then analyzed by flow cytometry.

| SMILES | Effect on intracellular ATP levels (MCF-7 cells [1]) | ROS generation (MCF-7 cells [2]; 1 μM) [%] | ROS generation (MCF-7 cells [2]; 5 μM) [%] | IC50 [3] [µM] | Mitochondrial membrane depolarization (MCF-7 cells [4]; 1.0 μM) [%] | Mitochondrial membrane depolarization (MCF-7 cells [4]; 5.0 μM) [%] |
| --- | --- | --- | --- | --- | --- | --- |
| C#Cc1cccc(Nc2ncnc3cc(OCCOC)c(OCCOC)cc23)c1 [erlotinib] | depleted | – | – | – | – | – |
| CNC(=O)c1cc(Oc2ccc(NC(=O)Nc3ccc(Cl)c(C(F)(F)F)c3)cc2)ccn1 [sorafenib] | – | 73.76 | 122.11 | 4.45 | 2.7 | 12.0 |
